From article PMC2929814 (Journal of medicinal chemistry, 2010)
Like-named read-outs stand apart in the source and are kept apart here.

Key:
[1] = tested on: P. falciparum D6 (CQS) strain; test: Activity against CQ-sensitive P. falciparum D6 in red cell culture; assay type: cell-based, Plasmodium falciparum
mouse spleen lymphocytes = test: Cytotoxicity against mouse spleen lymphocytes; settings: estimated ±50%
parasitemia = settings: mouse model, oral dosing; cited from earlier work
[2] = tested on: P. falciparum D6 (CQS) strain; settings: read-out: IC50 against the D6 strain; reported value; cited from earlier work

SMILES	Cytotoxicity (mouse spleen lymphocytes) [µM]	further results
CCN(CC)CCCC(C)Nc1ccnc2cc(Cl)ccc12 (stereo not shown) [CQ, chloroquine, reference compound]	12	IC50 ([1]; Plasmodium falciparum, D6, read-out: IC50 D6 (CQS)): 7 nM
CN(CCCNc1ccnc2cc(Cl)ccc12)CCCN1c2ccccc2CCc2ccccc21 [Compound 1]	0.7	parasitemia cleared to (parasitemia): < 1%
Clc1ccc2c(NCCCNCCCCN(Cc3ccccc3)Cc3ccccc3)ccnc2c1 [Compound 5]	1.3	
Clc1ccc2c(NCCN(CCN(Cc3ccccc3)Cc3ccccc3)CCN(Cc3ccccc3)Cc3ccccc3)ccnc2c1 [Compound 7]	6.2	
O=C(CNCCNc1ccnc2cc(Cl)ccc12)N(c1ccccc1)c1ccccc1 [Compound 10]	62	therapeutic index (cytotoxicity/efficacy) for D6 ([1]; cytotoxicity / IC50 D6): 12,000
Clc1ccc2c(N3CCN(CCN(Cc4ccccc4)Cc4ccccc4)CC3)ccnc2c1 [Compound 11]	61	
Clc1ccc2c(N3CCN(CCCN4CCN(c5ccnc6cc(Cl)ccc56)CC4)CC3)ccnc2c1 [piperaquine, 1,3-bis-[4-(7-chloroquinolyl-4)-piperazinyl-1]-propane]		IC50 [2]: < 10 nM
